US20210253560A1, “PLANT GROWTH REGULATING COMPOUNDS” (SYNGENTA PARTICIPATIONS AG, priority 2018, published 2021)
pIC50: −log10 of the molar value. Read-outs that look alike come from different tables or passages of the source.

System: corn leaf
Experiment: Dark induced senescence of corn leaf (leaf discs, image analysis)
Assay type: in vivo, corn (variety Multitop)
Details: 100 μM-0.0001 μM, 23° C., up to 8 days, 12 replicates, read-out: IC50 for dark induced senescence of corn leaf (concentration at which 50% senescence was achieved)
Description: It is known that strigolactones regulate (accelerate) leaf senescence, potentially through D14 receptor signaling. Compounds of the present invention (IA) were compared to structurally-related compounds (P) in a corn leaf dark induced senescence assay. Corn plants of variety Multitop were grown in a greenhouse with relative 75% humidity and at 23-25° C. for 6 weeks. 1.4 cm diameter leaf discs were placed into 24-well plates containing a test compounds in a concentration gradient (100 μM-0.0001 μM) at a final concentration of 0.5% DMSO. Each concentration was tested in 12 replicates. Plates were sealed with seal foil. The foil was pierced to provide gas exchange in each well. The plates were placed into the completely dark climatic chamber. Plates were incubated in the chamber with 75% humidity and at 23° C. for 8 days. On days 0, 5, 6, 7 and 8 photographs were taken of each plates, and image analysis conducted with a macro developed using the ImageJ software. The image analysis was used to determine the concentration at which 50% senescence was achieved (IC50), see Table 3. The lower the value, the higher senescence induction potency.

| SMILES | pIC50 | pIC50 (Zea mays, foliar, 192 h) |
| --- | --- | --- |
| CC1=C(C)C(O/C=C2\C(=O)N(CC#N)C3c4ccccc4CC23)OC1=O (stereo not drawn) [IA-10-Z, 2-[(3Z)-3-[(3,4-dimethyl-5-oxo-2H-furan-2-yl)oxymethylene]-2-oxo-4,8b-dihydro-3aH-indeno[1,2-b]pyrrol-1-yl]acetonitrile] |  | 7.15 |
| CC1=CC(OC=C2C(=O)N(CC#N)C3c4ccccc4CC23)OC1=O (stereo not drawn) [Compound P6-Z] | 7.13 |  |
| CC1=C(C)C(O/C=C2/C(=O)N(CC#N)C3c4ccccc4CC23)OC1=O (stereo not drawn) [IA-10-E] |  | 6.81 |

Second part, the compound after the results:

| pIC50 | pIC50 (Zea mays, foliar, 192 h) | SMILES |
| --- | --- | --- |
| 5.61 |  | CC1=CC(OC=C2C(=O)N(CC#N)C3c4ccccc4CC23)OC1=O (stereo not drawn) [Compound P4] |
|  | 6.77 | CC1=C(C)C(O/C=C2/C(=O)N(c3ccccc3)C3c4ccccc4CC23)OC1=O (stereo not drawn) [IA-8, (3E)-3-[(3,4-dimethyl-5-oxo-2H-furan-2-yl)oxymethylene]-1-phenyl-4,8b-dihydro-3aH-indeno[1,2-b]pyrrol-2-one] |
| 5.01 |  | CC1=CC(OC=C2C(=O)N(CC#N)C3c4ccccc4CC23)OC1=O (stereo not drawn) [Compound P2] |
| 5.14 |  | CC1=CC(OC=C2C(=O)N(CC#N)C3c4ccccc4CC23)OC1=O (stereo not drawn) [Compound P3] |
| 6.96 |  | CC1=CC(OC=C2C(=O)N(CC#N)C3c4ccccc4CC23)OC1=O (stereo not drawn) [Compound P1] |
|  | 7.52 | CC(=O)N1C(=O)/C(=C/OC2OC(=O)C(C)=C2C)C2Cc3ccccc3C21 (stereo not drawn) [IA-1, (3E)-1-acetyl-3-[(3,4-dimethyl-5-oxo-2H-furan-2-yl)oxymethylene]-4,8b-dihydro-3aH-indeno[1,2-b]pyrrol-2-one] |
